{"source": "patent US9434701B2", "about": "“Aminoquinoxaline derivatives for treatment of neurodegenerative diseases” (CENTRE NATIONAL DE LA RECHERCHE SCIENTIFIQUE (CNRS), priority 2011, dated 2016)", "key": {"[1]": {"assay": "toxicity: animal weight monitoring during per os treatment", "type": "in vivo", "experimental": "(§1) Three groups were created: • mice who received the carrier orally at 10 mL/kg (Group V, n=4), • mice treated with compound 4bc orally at 150 mg/kg and at 10 mL/kg (Group T, n=6), • control mice who received no treatment (n=2). All the mice were treated or received the carrier twice daily for 4 days. On the 5th day, a last treatment was administered and the animals were euthanized between […]. after this last treatment according to the following plan:\nThe animals were weighed every day throughout the sub-chronic study in order to monitor their general condition. Animal weights were considered a good indicator of general health since a compound's toxicity is known to be characterized by loss of bodyweight over time."}, "[2]": {"system": "dopaminergic neurons (TH+) of rat embryo ventral midbrain culture", "assay": "dopaminergic neuron spontaneous degeneration model in culture, TH+ neuron count after 8 days (Schmidt et al. protocol)", "type": "cell-based", "experimental": "Quinoxaline derivatives were tested on a dopaminergic neuron spontaneous degeneration model in culture according to the protocol described in the article by F. Schmidt et al. […] This model consists of culturing rat embryo ventral midbrain. This part of the brain in culture contains a proportion of dopaminergic neurons of 5% of the total neurons; the other neurons are mainly GABAergic. These cultures are also composed of glial cells, i.e., astrocytes, oligodendrocytes and microglia. These cultures are characterized by progressive neuron death."}, "[3]": {"assay": "passage of the blood-brain barrier, IP study: brain extract concentration by HPLC-MS/MS", "type": "in vivo, Rj Orl: SWISS mice", "details": "for concentration at 2 h: male, Rj Orl: SWISS, mouse, brain extract, ip, 70 mg/kg, IP 70 mg/kg, ± SEM", "experimental": "(§2) Male Rj Orl: SWISS, mice, approximately 5 weeks old and weighing between 20 and 24 g at arrival (R Janvier Breeding Center, France) were kept in the animal room at constant temperature (22±1° C.) and controlled humidity (55±20%), with a 12-hour light/dark cycle (8:00 a.m.-8:00 p.m.). During the acclimation and study period, the mice had free access to food and water. All the experiments were conducted in compliance with the conditions of decree 2001-464 of May 29, 2001 relative to animal experimentation.\nTwo treatment modes were used: intraperitoneal (IP) administration for 1 or 2 days or oral or per os administration for 5 days.\nThe solution of compound 4bc to be injected at a concentration of 7.0 g/L was prepared in a carrier containing 10% Tween 20+20% DMSO+70% 0.9% NaCl in water.\nThree animal groups were created: • mice who received the carrier by IP at 10 mL/kg (Group V, n=2), • mice treated with compound 4bc by IP at 70 mg/kg and at 10 mL/kg (Group T, n=6), • one untreated mouse that was used as a […] control during analysis.\nTreated mice T2 and T3 received treatments as follows:\nTreated mice T1, T4, T5 and T6 as well as the mice receiving the carrier V1 and V2 received the treatments/carriers as follows:\nThe mice were anesthetized by an injection of 0.1 mL of a 6% sodium pentobarbital solution and then the mice were infused to eliminate the compound present in the plasma with a 0.9% NaCl solution containing heparin (200 μL of heparin choay to 5000 IU/mL in one liter of 0.9% NaCl). Each animal was infused with a minimum of 50 mL of this solution. The mouse was then decerebrated and the cerebellum, brainstem and olfactory bulbs were removed by dissection.\nFor the IP study, the brain was dissected into two parts (right and left hemisphere).\nEach mouse brain sample treated with compound 4bc was weighed, placed in MeOH (100 μl MeOH per 10 mg of brain tissue) and then mixed by sonication. The suspensions thus obtained were centrifuged at 14,000 g for 7 minutes at 4° C. for IP or at 27,000 g for 10 minutes, at 4° C. for oral administration. The supernatants, diluted by half in MeOH, were transferred into HPLC vials for analysis of the presence of compound 4bc by HPLC-MS/MS.\n(§3) Detection and quantification, based on peak area, were done by HPLC-MS/MS in MRM mode.\nThe HPLC system was composed of a Dionex Ultimate 3000 pump equipped with a Dionex WPS-3000PL automatic sample injector. The mass spectrometer used is a Water-Micromass Quattro Ultima equipped with an electrospray ionization source and a triple quadrupole analyzer. Data was acquired and analyzed by Masslynx 3.5.\nLiquid chromatography was performed in isocratic mode with a Nucleodur™ (Macherey-Nagel) C18, 125×2.1 mm column with a particle size of 5.0 μm. The mobile phase was composed of a mixture of two phases A and B, in a proportion of 30/70. Phase A was composed of 1% acetic acid in water (v/v). Phase B was composed of 1% acetic acid in MeOH (v/v). The flow rate was set at 0.2 mL/min; the injection volume was 5 μl.\nThe mass spectrometer was connected to the HPLC system by using an electrospray ionization source. A switching valve was programmed before injection of the sample for rinsing and equilibration of the capillary, so as to prevent any accumulation of salt in the source capillary. The capillary voltage was set at 4000 V and the cone voltage at 80 V; the source temperature was set at 120° C.; the desolvation gas (N2) was set at a flow rate of 529 and the temperature at 350° C. The mass spectra were obtained in positive mode. The parameters were optimized to obtain the maximum molecular ion ([M+H]^+) at m/z 236.41, corresponding to compound 4bc. Collision was done by argon and the energy was set at 30 eV in MS/MS mode for detecting mass transitions: m/z 236.41→117.08; 236.41→131.10 and 236.41→158.27."}, "[4]": {"assay": "passage of the blood-brain barrier, per os study: brain extract by HPLC-MS/MS", "type": "in vivo, Rj Orl: SWISS mice", "details": "per os 150 mg/kg twice daily 4 days + last treatment day 5; euthanized 4 h to 6 h 40 after last treatment", "experimental": "as §2\nThe solution of compound 4bc at the concentration of 15.0 g/L to be administered was prepared in the following carrier: 0.5% Tween 80+99.5% carboxymethyl cellulose at 1%, in 0.9% NaCl in water.\nas §1, with “plan: […]” for “plan:”\nas §3"}}, "note": "Like-named read-outs stand apart in the source and are kept apart here.", "data": [{"smiles": "Cc1nc2ccc(N)cc2nc1-c1ccccc1", "note": "[Compound 4bc]", "values": [{"measurement": "adverse reactions", "setting": "[1]; oral, 300 mg/kg/day over a 5-day treatment", "result": "without adverse reactions"}, {"measurement": "toxicity from animal weight gain", "setting": "[1]; per os, 300 mg/kg/day, 5 days", "result": "absence of significant toxicity"}, {"measurement": "activity on survival of dopaminergic neurons (in words)", "setting": "[2]; 100 nM, compared with dbcAMP", "result": "nearly equal to the one induced by dbcAMP"}, {"measurement": "activity at 0.1 µM", "setting": "[2]; Rattus norvegicus, Neuron, 192 h, compound at 100 nM, 8 days of culture, read-out: TH+ neurons in % of control ± SEM", "result": 140, "unit": "%"}, {"measurement": "brain extracts at 4-6 h less concentrated than at 2 h post-treatment", "setting": "[3]; IP", "result": 2000, "unit": "times"}, {"measurement": "elimination from the brain over time", "setting": "[3]; IP", "result": "eliminated quickly from the brain"}, {"measurement": "mean value of extracts analyzed later lower than previously calculated (ratio of the means)", "setting": "[3]; IP, 2 h brain extracts, stored at 4° C.", "result": "approximately 6 times"}, {"measurement": "detection in old brain extracts", "setting": "[3]; IP, euthanized between 4 and 6 h after the last treatment, extracts stored 40 days at 4° C., n=8", "result": "detectable"}, {"measurement": "crossing of the blood brain barrier in vivo", "setting": "[3]; intraperitoneal administration", "result": "able to cross the blood brain barrier"}, {"measurement": "concentration at 2 h", "setting": "[3]; euthanized 2 h after last treatment, extracts stored 40 days at 4° C., n=4, read-out: mean concentration in old brain extracts", "result": 1390, "unit": "ng/mL"}, {"measurement": "concentration at 2 h", "setting": "[3]; euthanized 2 h after the last treatment, n=3, read-out: mean concentration in brain extract", "result": 8830, "unit": "ng/mL"}, {"measurement": "detection in brain samples", "setting": "[4]", "result": "undetectable"}]}]}
